Here are results for two compounds from patent publication EP1946754A1, “THERAPEUTIC AGENT FOR ULCERATIVE COLITIS AND/OR CROHN'S DISEASE” (Yamamoto, Keiko, priority 2005, dated 2007).

Each structure is given as a SMILES string.

Test [1] concerns dextran sodium sulfate (DSS)-induced ulcerative colitis model in the rat. As to the kind of experiment: Rat model of DSS-induced ulcerative colitis, 7-day repetitive intrarectal administration (Example 1). Format: in vivo, SD rats. Particulars: 7 days; for Hb / Ht / RBC / WBC: hematological examination, i.r., DSS rat; for colon contraction: DSS rat (Figure 2). An excerpt: The therapeutic effect of YY-1 was investigated with the 7-day repetitive intrarectal administration using a dextran sodium sulfate (DSS)-induced ulcerative colitis model in the rat (Cancer Research, 61, 2424-2428, 2001). To generate the rat model of DSS-induced ulcerative colitis, a 3% aqueous DSS solution was ingested ad libitum by SD rats (male, age: 7 weeks) purchased from Charles River Laboratories Japan Inc., and animals presenting bloody stools were used as the rat model of DSS-induced ulcerative colitis.
The negative control group received 0.5% aqueous CMC-Na solution (vehicle) by intrarectal administration, while the positive control group received 100 mg/kg/day 5-aminosalicylic acid (5-ASA, purchased from Aldrich Chemical Company) dissolved in 0.5% aqueous CMC-Na solution by intrarectal administration. For YY-1, the compound was combined with 0.5% aqueous CMC-Na solution by means of a vortex mixing and sonication to form a suspension, and was administered intrarectally at 20 mg/kg/day (low dose group), 100 mg/kg/day (intermediate dose group), and 500 mg/kg/day (high dose group). Each group contained 8 SD rats, and a 1% aqueous DSS solution was ingested ad libitum during the test period.

Test [2] has as its system dextran sodium sulfate (DSS)-induced ulcerative colitis model in the mouse. Briefly: Mouse model of DSS-induced ulcerative colitis, 7-day repetitive intrarectal administration, 9.0% DSS during test period (Example 3). Particulars: 500 mg/kg/day intrarectal, 7 days. Format: in vivo, c57BL/6J mice. An excerpt:
(§1) The therapeutic effect of YY-1 was investigated with the 7-day repetitive intrarectal administration using a dextran sodium sulfate (DSS)-induced ulcerative colitis model in the mouse. To generate the mouse model of DSS-induced ulcerative colitis, a 9.0% aqueous DSS solution was ingested ad libitum for 7 days by c57BL/6J (male, age: 8 weeks) purchased from CLEA Japan, Inc., and animals presenting body weight loss, bloody stool, and/or diarrhea were used as the mouse model of DSS-induced ulcerative colitis.
The negative control group received 0.5% aqueous CMC-Na solution by intrarectal administration. For YY-1, the compound was combined with 0.5% aqueous CMC-Na solution by means of an ultrasound mixer under ice cooling to prepare a suspension, and was administered intrarectally at 500 mg/kg/day. Each group contained 8 c57BL/6J mice, and a 9.0% aqueous DSS solution was ingested ad libitum during the test period (Figure 7).

Test [3] has the same test system. As to the kind of experiment: Mouse model of DSS-induced ulcerative colitis, 7-day repetitive intrarectal administration, 5.0% DSS during test period (Example 2). Format: in vivo, c57BL/6J mice. Particulars: 7 days; for body weight gain: P < 0.05 (Figure 4); for symptom alleviation: P < 0.05 (Figure 5); for colon contraction: P < 0.05 (Figure 6).
Text: as §1
The negative control group received 0.5% aqueous CMC-Na solution by intrarectal administration, while the positive control group received 100 mg/kg/day 5-aminosalicylic acid (5-ASA, purchased from Aldrich Chemical Company) dissolved in 0.5% aqueous CMC-Na solution by intrarectal administration. For YY-1, the compound was combined with 0.5% aqueous CMC-Na solution by means of an ultrasound mixer under ice cooling to form a suspension, and was administered intrarectally at 100 mg/kg/day or 500 mg/kg/day. Each group contained 8 c57BL/6J mice, and a 5.0% aqueous DSS solution was ingested ad libitum during the test period (Figure 3).

In the case of `Nc1ccc(O)c(C(=O)O)c1` [5-ASA, 5-aminosalicylic acid, reference compound], in test [1] (100 mg/kg/day), the Hb was 13.3 ± 0.4 g/dL, the Ht is reported as 41.7 ± 1.1%, the RBC is recorded as 633 ± 27 x 10^4/µL and the WBC is listed as 126 ± 20 x 10^2/µL.

In the case of `CC/C=C\C/C=C\C/C=C\C/C=C\C/C=C\C=C\C(O)CCC(=O)O` (stereo not shown) [YY-1, (5E,7Z,10Z,13Z,16Z,19Z)-4-hydroxy-5,7,10,13,16,19-docosahexaenoic acid], the colon contraction entry in test [2] (P < 0.01 (Figure 10)), in test [1] (100 mg/kg/day intrarectal), in test [1] (500 mg/kg/day intrarectal), in test [3] (100 mg/kg/day intrarectal) and in test [3] (500 mg/kg/day intrarectal) was “significant improvement” in each case. In addition, the body weight gain entry in test [2] (P < 0.05 (Figure 8)), in test [3] (100 mg/kg/day intrarectal) and in test [3] (500 mg/kg/day intrarectal) was “significant improvement” in each case. In addition, the symptom alleviation entry in test [2] (P < 0.05 (Figure 9)), in test [3] (100 mg/kg/day intrarectal) and in test [3] (500 mg/kg/day intrarectal) was “significant improvement” throughout. Moreover, in test [1] (500 mg/kg/day intrarectal, DSS rat (Figure 1)), the “area of erosion in the mucous membrane of the colon” value is “significant reduction”. The figures for the Hb in test [1] (20 mg/kg/day), in test [1] (100 mg/kg/day) and in test [1] (500 mg/kg/day) were 11 ± 1.5 g/dL, 12.2 ± 0.9 g/dL and 13.8 ± 0.3 g/dL, respectively. In addition, the Ht in test [1] (20 mg/kg/day) is recorded as 35.5 ± 4.6%; in test [1] (100 mg/kg/day), 41.5 ± 3.2%; in test [1] (500 mg/kg/day) it was 45.7 ± 1.1%. For the same compound, the RBC is recorded as 519 ± 80 x 10^4/µL in test [1] (20 mg/kg/day), 605 ± 51 x 10^4/µL in test [1] (100 mg/kg/day) and 670 ± 20 x 10^4/µL in test [1] (500 mg/kg/day). In addition, the WBC was 136 ± 34 x 10^2/µL in test [1] (20 mg/kg/day), 120 ± 13 x 10^2/µL in test [1] (100 mg/kg/day) and 138 ± 14 x 10^2/µL in test [1] (500 mg/kg/day).
